Experimental data: ChEMBL document CHEMBL3997784, “Discovery of new nanomolar inhibitors of GPa: Extension of 2-oxo-1,2-dihydropyridinyl-3-yl amide-based GPa inhibitors” (Eur J Med Chem, 2017)
Calls of active or inactive are those of the source. The rule behind the calls is not given here.

target: Glycogen phosphorylase, muscle form (Oryctolagus cuniculus) (UniProt P00489); assay: Inhibition of rabbit muscle glycogen phosphorylase A assessed as release of inorganic phosphate from glucose-1- phosphate in presence of glycogen at 2.2 uM after 30 mins by malachite green based assay relative to control; details: not given
Sequence (P00489 whole entry, looked up): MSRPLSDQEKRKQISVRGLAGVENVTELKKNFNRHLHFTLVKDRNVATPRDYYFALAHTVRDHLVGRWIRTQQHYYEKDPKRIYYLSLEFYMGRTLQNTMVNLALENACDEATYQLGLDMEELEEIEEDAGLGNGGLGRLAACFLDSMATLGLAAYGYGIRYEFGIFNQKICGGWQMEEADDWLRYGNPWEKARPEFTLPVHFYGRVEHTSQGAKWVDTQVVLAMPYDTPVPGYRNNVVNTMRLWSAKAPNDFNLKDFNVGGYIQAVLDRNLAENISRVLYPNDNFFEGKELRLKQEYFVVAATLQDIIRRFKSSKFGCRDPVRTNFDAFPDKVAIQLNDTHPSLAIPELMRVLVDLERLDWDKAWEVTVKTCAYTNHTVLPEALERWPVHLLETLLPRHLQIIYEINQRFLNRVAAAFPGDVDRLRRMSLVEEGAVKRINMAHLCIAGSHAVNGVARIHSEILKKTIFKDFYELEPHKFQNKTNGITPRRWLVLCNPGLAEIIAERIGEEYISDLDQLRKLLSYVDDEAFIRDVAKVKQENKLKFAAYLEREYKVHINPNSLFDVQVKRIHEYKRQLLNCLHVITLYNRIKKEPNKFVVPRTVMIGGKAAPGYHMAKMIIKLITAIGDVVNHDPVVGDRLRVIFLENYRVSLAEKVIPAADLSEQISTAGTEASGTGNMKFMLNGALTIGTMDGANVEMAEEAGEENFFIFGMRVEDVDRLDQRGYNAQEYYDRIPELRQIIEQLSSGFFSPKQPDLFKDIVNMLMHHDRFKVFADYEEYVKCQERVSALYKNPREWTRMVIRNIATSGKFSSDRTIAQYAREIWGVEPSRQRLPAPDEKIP

inhibition [%]	Structure (SMILES)
> 85	O=C(Cn1cccc(NCc2ccc(CNc3cccn(CC(=O)NCc4ccc(Cl)c(Cl)c4)c3=O)s2)c1=O)NCc1ccc(Cl)c(Cl)c1
> 85	O=C(Cn1cccc(NC(=O)Nc2ccc(NC(=O)Nc3cccn(CC(=O)NCc4ccc(Cl)c(Cl)c4)c3=O)cc2)c1=O)NCc1ccc(Cl)c(Cl)c1

target: Glycogen phosphorylase, muscle form (Oryctolagus cuniculus) (UniProt P00489); assay: Inhibition of rabbit muscle glycogen phosphorylase A assessed as release of inorganic phosphate from glucose-1- phosphate in presence of glycogen after 30 mins by malachite green based assay; details: not given

IC50 [nM]	Structure (SMILES)
260	O=C(Cn1cccc(NCc2ccc(CNc3cccn(CC(=O)NCc4ccc(Cl)c(Cl)c4)c3=O)s2)c1=O)NCc1ccc(Cl)c(Cl)c1
3100	CCOC(=O)Cn1cccc(NC(=O)Nc2ccc(NC(=O)Nc3cccn(CC(=O)OCC)c3=O)cc2)c1=O
230	O=C(Cn1cccc(NC(=O)Nc2ccc(NC(=O)Nc3cccn(CC(=O)NCc4ccc(Cl)c(Cl)c4)c3=O)cc2)c1=O)NCc1ccc(Cl)c(Cl)c1
33000	O=c1c(NCc2ccc(Cl)c(Cl)c2)cccn1Cc1ccccc1
1600	CCCNC(=O)Cn1cccc(NC(=O)Nc2ccc(NC(=O)Nc3cccn(CC(=O)NCCC)c3=O)cc2)c1=O

target: Glycogen phosphorylase, muscle form (Oryctolagus cuniculus) (UniProt P00489); assay: Inhibition of rabbit muscle glycogen phosphorylase A assessed as release of inorganic phosphate from glucose-1- phosphate in presence of glycogen at 222 uM after 30 mins by malachite green based assay relative to control; details: not given

Structure (SMILES)	inhibition
CCOC(=O)Cn1cccc(NCc2ccc(CNc3cccn(CC(=O)OCC)c3=O)s2)c1=O	29%
O=c1c(NCc2ccc(Cl)c(Cl)c2)cccn1Cc1ccccc1	> 85%
Cc1ccn(CC(=O)NCc2ccc(Cl)c(Cl)c2)c(=O)c1NCc1ccccc1	38%

The next lines start with the values.

inhibition	Structure (SMILES)
inactive	O=C(Cn1cccc(NC(=O)c2ccccc2)c1=O)NCCNC(=O)Cn1cccc(NC(=O)c2ccccc2)c1=O
> 85%	CCOC(=O)Cn1cccc(NC(=O)Nc2ccc(NC(=O)Nc3cccn(CC(=O)OCC)c3=O)cc2)c1=O
34%	Cn1cccc(NCc2ccc(Cl)c(Cl)c2)c1=O
39%	O=C(NCc1ccc(Cl)c(Cl)c1)C1CCCN(C(=O)c2ccccc2)C1=O (centres undefined)
60%	O=C(Cn1cccc(NCc2ccccc2)c1=O)NCc1cn(Cc2ccccc2)nn1
38%	O=C(NCc1ccccc1)C1CCCN(C(=O)c2ccccc2Cl)C1=O (centres undefined)
inactive	O=c1c(NCc2ccccc2)cccn1Cc1ccccc1
inactive	O=C(NCc1ccccc1)C1CCCN(C(=O)c2ccccc2)C1=O (centres undefined)

target: T1, Glycogen phosphorylase, muscle form (Rattus norvegicus) (UniProt P09812); assay: not given; details: 22.2 uM
T1 sequence (whole entry): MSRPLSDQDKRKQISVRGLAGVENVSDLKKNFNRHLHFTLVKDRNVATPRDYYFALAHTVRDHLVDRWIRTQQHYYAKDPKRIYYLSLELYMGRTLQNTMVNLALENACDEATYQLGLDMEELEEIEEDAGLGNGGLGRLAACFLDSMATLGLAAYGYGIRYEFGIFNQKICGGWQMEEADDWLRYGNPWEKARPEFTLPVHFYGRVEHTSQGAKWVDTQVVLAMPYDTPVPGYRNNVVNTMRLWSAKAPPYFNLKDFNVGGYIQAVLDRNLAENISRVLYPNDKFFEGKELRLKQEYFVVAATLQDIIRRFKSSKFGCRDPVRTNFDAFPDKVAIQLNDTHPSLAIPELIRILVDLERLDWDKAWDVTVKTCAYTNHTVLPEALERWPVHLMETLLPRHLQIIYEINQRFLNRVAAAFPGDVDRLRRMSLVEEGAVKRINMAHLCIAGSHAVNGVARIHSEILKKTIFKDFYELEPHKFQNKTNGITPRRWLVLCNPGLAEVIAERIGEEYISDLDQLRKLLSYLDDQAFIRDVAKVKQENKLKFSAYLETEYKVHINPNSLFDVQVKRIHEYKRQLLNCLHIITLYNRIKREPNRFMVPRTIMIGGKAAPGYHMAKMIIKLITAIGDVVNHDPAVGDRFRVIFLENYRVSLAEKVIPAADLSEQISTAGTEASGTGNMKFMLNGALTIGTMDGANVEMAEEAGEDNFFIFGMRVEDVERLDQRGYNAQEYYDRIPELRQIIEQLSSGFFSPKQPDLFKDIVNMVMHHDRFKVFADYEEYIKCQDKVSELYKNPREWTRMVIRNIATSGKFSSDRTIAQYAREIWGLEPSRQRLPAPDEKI

inhibition [%]	Structure (SMILES)
> 85	CCCNC(=O)Cn1cccc(NC(=O)Nc2ccc(NC(=O)Nc3cccn(CC(=O)NCCC)c3=O)cc2)c1=O
